Experimental data published in PubChem BioAssay (NCI).
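Results reflect a 48-hour exposure of cells in 96-well plates to compound at five concentrations. Definition used: TGI = concentration required for complete inhibition of growth.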

Key:
Assay in all cases: growth of human tumour cells (NCI), 48 h
[1] = test system: 786-0 renal
[2] = test system: BT-549 breast
[3] = test system: CAKI-1 renal
[4] = test system: EKVX NSCLC
[5] = test system: HL-60(TB) leukemia
[6] = test system: HOP-92 NSCLC
[7] = test system: HS 578T breast
[8] = test system: K-562 leukemia
[9] = test system: KM12 colon
[10] = test system: MCF7 breast
[11] = test system: MDA-N
[12] = test system: MOLT-4 leukemia
[13] = test system: NCI-H226 lung
[14] = test system: NCI/ADR-RES ovarian
[15] = test system: PC-3 prostate
[16] = test system: RPMI-8226 leukemia
[17] = test system: SNB-75 CNS
[18] = test system: TK-10 renal
[19] = test system: UACC-257 melanoma
[20] = test system: UO-31 renal

SMILES | TGI [1] [µM] | TGI [2] [µM] | TGI [3] [µM] | TGI [4] [µM] | TGI [5] [µM] | TGI [6] [µM] | TGI [7] [µM] | TGI [8] [µM] | TGI [9] [µM] | TGI [10] [µM] | TGI [11] [µM] | TGI [12] [µM] | TGI [13] [µM] | TGI [14] [µM] | TGI [15] [µM] | TGI [16] [µM] | TGI [17] [µM] | TGI [18] [µM] | TGI [19] [µM] | TGI [20] [µM]
c1ccc([P+](CC[P+](c2ccccc2)(c2ccccc2)c2ccccc2)(c2ccccc2)c2ccccc2)cc1 | > 100 | > 100 | > 100 | > 100 | 55.2 | > 92.3 | > 100 | > 100 | > 100 | > 100 | > 61.8 | > 100 | > 100 | > 100 | 60.6 | 7.79 | > 76.5 | > 67.3 | 11 | > 100
COc1ccc(NC(=O)N(C)CC2(O)CCC(C(C)(C)C)CC2)cc1 (centres undefined) | > 100 | > 100 | 10.3 | > 100 | > 100 | 90.4 | > 100 | > 100 | > 100 | > 100 | > 100 | > 100 |  | > 100 | > 100 | 72.5 | > 100 | > 100 | > 100 | > 100
COC(=O)c1ccccc1Nc1nc(-c2cccs2)nc2cc(OC)c(OC)cc12 | > 100 | > 100 | > 100 | > 100 | > 100 | > 100 | > 100 | > 100 | > 100 | > 100 |  | > 100 | 89.4 | > 100 | > 100 | > 100 | > 100 | 70.2 | > 100 | > 100
O=C1NP23(OCCO2)Oc2ccccc2C3(C(F)(F)F)O1 (centres undefined) |  |  |  |  | > 100 |  |  | > 100 | > 100 |  |  | > 100 | > 100 |  |  |  | > 100 | > 100 | > 100 | 
O=C(O)C1C2C=CC(C2)C1c1ccccc1 (centres undefined) | > 100 |  | > 100 | > 100 | > 100 | > 100 | > 100 | > 100 | > 100 | > 100 | > 100 | > 100 | > 100 | > 100 | > 100 | > 100 | > 100 | > 100 | > 100 | > 100
COc1ccc(CC2c3cc(OC)c(OC)cc3CC[N+]2(C)C)cc1OC (centres undefined) | > 100 | > 100 | > 100 | > 100 | > 100 | > 100 | > 100 | > 100 | > 100 | > 100 | > 100 | > 100 | > 100 | > 100 | > 100 | > 100 | > 100 | > 100 | > 100 | > 100
CCC(C)C1NC(=O)C(NC(=O)c2c3[nH]c4c(C(=O)NC5C(=O)NC(C(C)CC)C(=O)N6CCCC6C(=O)N(C)CC(=O)N(C)C(C(C)C)C(=O)OC5C)ccc(C)c4oc-3c(C)c(=O)c2=O)C(C)OC(=O)C(C(C)C)N(C)C(=O)CN(C)C(=O)C2CCCN2C1=O (centres undefined) | > 79.9 | > 72.4 | > 91.2 | > 100 | 52.2 | > 80.3 | 37.8 | > 65 | > 56.7 | > 33 | 33 | > 39.8 | > 51.6 | > 100 | > 100 | 35.1 | 32.9 | 98.4 | 38.6 | > 77
CCOP(=O)(COCCn1ncc(=O)[nH]c1=O)OCC |  | > 100 | > 100 | > 100 | > 100 | > 100 | > 100 |  | > 100 | > 100 | > 100 | > 100 | > 100 | > 100 | > 100 | > 100 | > 100 | > 100 |  | > 100
COc1c(OC(C)=O)c(OC(C)=O)cc2c1-c1ccc(SC)c(=O)cc1C(NC(C)=O)CC2 (centres undefined) | > 100 | > 100 | > 87.1 | > 100 | 0.61 | > 100 | 0.701 | > 43.8 | > 100 | > 100 | 0.576 | > 100 | 33.1 | > 100 | > 100 | > 100 | 15.3 | > 96.3 | > 100 | > 100
Oc1cc(O)cc(-c2nc3cc(F)ccc3s2)c1 | 47.1 | 53.2 | 53.8 |  |  |  |  |  | 52.1 | 64.6 | > 100 |  | 64.2 | > 100 | 83.6 | 50.2 |  | 76.5 | 45.6 | 76.6
COc1cc(O)c(C(=O)/C=C/c2ccc(O)cc2)cc1Oc1ccc(/C=C/C(=O)c2ccc(O)cc2O)cc1 | 16.5 | 22.6 | 38.9 | 27.7 | 34 | 22.2 | > 50 | 22.8 | 15.5 | 22.9 | 31 | 38.8 |  | 26.7 | 22.1 | 17.6 | 20.1 | 25.6 | 23.2 | 18.2
